How the values were obtained:
Thermal stability test = assay type: physicochemical
Protocol: The test compound was placed in a glass bottle and allowed to stand under the following conditions (1) and (2). After a certain period of time had elapsed, the residual rate of the active ingredient [compound (I)] in the test compound was measured by high performance liquid chromatography.
(1): Closed state, 60° C.;
(2): Non-closed state, 40° C., humidity 75%.
The measurement conditions in high performance liquid chromatography are as follows.
Column: L-column ODS [4.6 mm×250 mm, manufactured by Chemicals Evaluation and Research Institute, Japan]
Mobile layer: acetonitrile/22 mM potassium dihydrogenphosphate buffer/methanol=455/350/195 (V/V/V) (adjusted to pH 5.5 by phosphoric acid)
(§1) Column temperature: 40° C.
Detection wavelength: 220 nm
The residual rate (%) was calculated by the following formula.
The residual rate (%)=[1−(sum of peak area percentages of impurities and decomposed products)]×100

[1] = Elution test (JP paddle method, pH 1.2); assay type: physicochemical; conditions: for Elution rate: pH 1.2, 900 ml, paddle 250 rpm, 100 mg equivalent/capsule
Protocol: A test was carried out using one gelatin capsule filled with the test compound (100 mg equivalent/capsule) and 900 ml of the disintegration test first solution (The Japanese Pharmacopoeia Fourteenth Edition, pH 1.2) as a test solution according to the elution test second method (The Japanese Pharmacopoeia Fourteenth Edition, paddle method) at 250 revolutions per minute. A sinker (The Japanese Pharmacopoeia Fourteenth Edition elution test method) was used for preventing flotation of the gelatin capsule. Five, 10, 15, 20, 30, 45, 60, 75, 90, 105 and 120 minutes after the start of the elution test, about 20 ml of the test solution was filtered through a filter having a pore size of 10 μm (manufactured by VARIAN, Full Flow Filters 10 μm) and directly fed into a flow cell (optical path length: 0.5 cm) in a circulating system. The absorbance was measured by a photodiode array spectrophotometer (HP 8452A). The absorbance of the compound (I) in each test solution at the time of collection of the test solution was compared with the absorbance of the following standard solution to measure the concentration of the compound (I) in the test solution.
The standard solution was prepared as follows. About 28 mg of the compound (I) was precisely weighed and added to a 500 ml volumetric flask. Five ml of ethanol (99.5%, special grade reagent) was added to the flask and the compound (I) was dissolved while providing ultrasonic stimulation as necessary. The disintegration test first solution was added to make the volume exactly 500 ml. The resulting solution was provided as the standard solution.
The elution test system is shown below.
Elution test device: DT-600 (manufactured by JASCO)
Ultraviolet visible spectrophotometer: HP 8452A Diodearray UV-Visible Spectrophotometer (manufactured by Hewlett Packard; now Agilent Technologies)
Cell positioner: HP 89075C Multicell Transport (manufactured by Hewlett Packard)
Delivery pump: HP 89092A Multichannel Pump (manufactured by Hewlett Packard)
Elution test software: Hewlett Packard Dissolution Testing Software, Revision 03.01 (manufactured by Hewlett Packard)
Analysis wavelength: 254 to 258 nm
Control wavelength: 322 to 326 nm
Optical path length of quartz cell: 0.5 cm

[2] = Absorbability test in dog; assay type: in vivo, dog (male beagle); conditions: for Cmax / AUC(0-t): fasted male beagle, tetragastrin-treated, oral gelatin capsule 100 mg/body, plasma; for AUC(0-t): read-out: AUC0-24 h
Protocol: Tetragastrin (6 μg/kg) was intramuscularly injected to the posterior region of thigh of a fasted male beagle (body weight: about 10 kg, n=4) to make the intragastric pH acidic 30 minutes before, immediately before and 30 minutes after administration of the test compound. The test compound was encapsulated in gelatin capsules at a dose of 100 mg/body and orally administered. About 3 ml of blood was collected from the median antebrachial vein using a heparin-treated glass syringe 0.5, 1, 2, 3, 4, 6, 8 and 24 hours after the administration. The collected blood was centrifuged to obtain plasma which was cryopreserved at −20° C. until measurement of the concentration of the test compound. One hundred μl of thawed plasma was mixed with 100 μl of 50% methanol, 800 μl of purified water, 100 μl of 0.1 N aqueous hydrochloric acid and 100 μl of an internal standard solution [a solution of the d7-compound (I) in 50% methanol, 50 ng/ml]. The eluate obtained by solid phase extraction using OASIS HLB was evaporated to dryness and then dissolved in 400 μl of 75% methanol. The solution was analyzed by LC/MS/MS.
A calibration curve was prepared by the same operation as above using 100 μl of dog control plasma without drug administration and 100 μl of a calibration curve standard solution [a solution of the compound (I) in 50% methanol, 0.1-1000 ng/ml].
The LC/MS/MS analysis conditions are shown below.
System: API4000 LC/MS/MS System (manufactured by
Applied Biosystems/MDS SCIEX)
Ion source: TurboIonSpray
Turbo heater gas: Air, 650° C., 70 psi
Nebulizer gas: Air, 70 psi
Orifice voltage: Compound (I) 106 V • d7-Compound (I) 106 V
Ion spray voltage: 5500 V
Collision energy: Compound (I) 35 V • d7-Compound (I) 35 V
Measurement mode: Positive/MRM
Monitor ion: Compound (I) m/z 583->167 • d7-Compound (I) m/z 590->167
System: Agilent 1100 Series (manufactured by Agilent Technologies)
Column: Inertsil ODS-3 5 μm, 2.1 mm I.D.×150 mm (manufactured by GL Sciences)
Mobile phase: Methanol/water/difluoroacetic acid (700/300/0.75)
as §1
The area under the concentration in plasma-time curve (AUC0-24h) and the maximum concentration in plasma (Cmax) as pharmacokinetic parameters indicative of drug absorbability were calculated from the results obtained according to the aforementioned method using the compound of Example 1 and the compound (I) as test compounds.

Elution rate ([1]; 5 min) [%] | Elution rate ([1]; 10 min) [%] | Elution rate ([1]; 15 min) [%] | Elution rate ([1]; 20 min) [%] | Elution rate ([1]; 30 min) [%] | Elution rate ([1]; 45 min) [%] | Elution rate ([1]; 60 min) [%] | Elution rate ([1]; 75 min) [%] | Elution rate ([1]; 90 min) [%] | Elution rate ([1]; 105 min) [%] | Elution rate ([1]; 120 min) [%] | Cmax [2] [ng/mL] | AUC(0-t) [2] [ng·h/mL] | Structure (SMILES) | further results
1.0 | 1.9 | 3.3 | 5.0 | 9.9 | 23.5 | 35.5 | 40.8 | 45.1 | 49.6 | 52.6 | 248 | 2930 | Br.Br.CC1=C(C(=O)OC(C)C)C(c2cccc([N+](=O)[O-])c2)C(C(=O)OC2CN(C(c3ccccc3)c3ccccc3)C2)=C(N)N1 (single isomer, unassigned) [Example 1, 2-Amino-1,4-dihydro-6-methyl-4-(3-nitrophenyl)-3,5-pyridinedicarboxylic acid 3-(1-diphenylmethylazetidin-3-yl)ester 5-isopropyl ester dihydrobromide] | Residual rate of Compound (I) (Thermal stability test; Condition (1): closed state, 60° C., time 0 month): 99.9%; Residual rate of Compound (I) (Thermal stability test; Condition (1): closed state, 60° C., time 1 month): 99.7%; Residual rate of Compound (I) (Thermal stability test; Condition (1): closed state, 60° C., time 3 months): 99.7%; Residual rate of Compound (I) (Thermal stability test; Condition (1): closed state, 60° C., time 6 months): 99.6%; stability (in words) (Thermal stability test; Condition (2): non-closed state, 40° C., humidity 75%): excellent stability; Residual rate of Compound (I) (Thermal stability test; Condition (2): non-closed state, 40° C., humidity 75%, time 0 month): 99.9%; Residual rate of Compound (I) (Thermal stability test; Condition (2): non-closed state, 40° C., humidity 75%, time 1 month): 99.5%; Residual rate of Compound (I) (Thermal stability test; Condition (2): non-closed state, 40° C., humidity 75%, time 3 months): 99.1%; Residual rate of Compound (I) (Thermal stability test; Condition (2): non-closed state, 40° C., humidity 75%, time 6 months): 98.9%; elution properties (in words) ([1]; pH 1.2, compared with free compound (I)): superior to those of the free compound (I); bioavailability and concentration in blood (AUC0-24h and Cmax), in words ([2]; oral, compared with free compound (I)): superior to those of the free compound (I)
0.5 | 0.7 | 1.0 | 1.3 | 1.8 | 2.5 | 3.1 | 3.6 | 4.1 | 4.5 | 5.0 | 178 | 1810 | CC1=C(C(=O)OC(C)C)C(c2cccc([N+](=O)[O-])c2)C(C(=O)OC2CN(C(c3ccccc3)c3ccccc3)C2)=C(N)N1 (stereo not shown) [Compound (I), 2-Amino-1,4-dihydro-6-methyl-4-(3-nitrophenyl)-3,5-pyridinedicarboxylic acid 3-(1-diphenylmethylazetidin-3-yl) ester 5-isopropyl ester, reference compound] | 
